Measurements: PubChem BioAssay (NCI)
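How tested: cells in 96-well plates exposed to compound for 48 hours at five concentrations. TGI: concentration producing complete growth inhibition.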

What was measured:
Experiment in all cases: inhibition of tumour cell growth, NCI panel, 48 h
SF-295 CNS = tested on: SF-295 CNS
HOP-62 NSCLC = tested on: HOP-62 NSCLC
NCI-H460 lung = tested on: NCI-H460 lung
MDA-MB-435 = tested on: MDA-MB-435
NCI-H226 lung = tested on: NCI-H226 lung
NCI-H23 lung = tested on: NCI-H23 lung
OVCAR-8 ovarian = tested on: OVCAR-8 ovarian
U251 CNS = tested on: U251 CNS
A549 NSCLC = tested on: A549 NSCLC
ACHN renal = tested on: ACHN renal
SN12C renal = tested on: SN12C renal
HS 578T breast = tested on: HS 578T breast
COLO 205 colon = tested on: COLO 205 colon
SK-MEL-2 melanoma = tested on: SK-MEL-2 melanoma
NCI/ADR-RES ovarian = tested on: NCI/ADR-RES ovarian
SNB-19 CNS = tested on: SNB-19 CNS
SW-620 colon = tested on: SW-620 colon
786-0 renal = tested on: 786-0 renal
NCI-H522 lung = tested on: NCI-H522 lung
MALME-3M melanoma = tested on: MALME-3M melanoma
LOX IMVI melanoma = tested on: LOX IMVI melanoma
RPMI-8226 leukemia = tested on: RPMI-8226 leukemia
OVCAR-4 ovarian = tested on: OVCAR-4 ovarian
CAKI-1 renal = tested on: CAKI-1 renal
HT29 colon = tested on: HT29 colon
MDA-MB-231 breast = tested on: MDA-MB-231 breast
DU-145 prostate = tested on: DU-145 prostate
OVCAR-3 ovarian = tested on: OVCAR-3 ovarian
HCC-2998 colon = tested on: HCC-2998 colon
TK-10 renal = tested on: TK-10 renal
MOLT-4 leukemia = tested on: MOLT-4 leukemia
HCT-15 colon = tested on: HCT-15 colon
SK-MEL-5 melanoma = tested on: SK-MEL-5 melanoma
HOP-92 NSCLC = tested on: HOP-92 NSCLC
HCT-116 colon = tested on: HCT-116 colon
OVCAR-5 ovarian = tested on: OVCAR-5 ovarian
KM12 colon = tested on: KM12 colon
RXF 393 renal = tested on: RXF 393 renal
MCF7 breast = tested on: MCF7 breast
UACC-62 melanoma = tested on: UACC-62 melanoma
SF-268 CNS = tested on: SF-268 CNS
K-562 leukemia = tested on: K-562 leukemia
BT-549 breast = tested on: BT-549 breast
EKVX NSCLC = tested on: EKVX NSCLC
SK-MEL-28 melanoma = tested on: SK-MEL-28 melanoma
T-47D breast = tested on: T-47D breast
UACC-257 melanoma = tested on: UACC-257 melanoma
IGROV1 ovarian = tested on: IGROV1 ovarian
M14 melanoma = tested on: M14 melanoma
CCRF-CEM leukemia = tested on: CCRF-CEM leukemia
PC-3 prostate = tested on: PC-3 prostate
SK-OV-3 ovarian = tested on: SK-OV-3 ovarian
A498 renal = tested on: A498 renal
MDA-N = tested on: MDA-N
SNB-75 CNS = tested on: SNB-75 CNS
SF-539 CNS = tested on: SF-539 CNS
UO-31 renal = tested on: UO-31 renal
HL-60(TB) leukemia = tested on: HL-60(TB) leukemia
SR leukemia = tested on: SR leukemia

Work on `Cc1ccc(/C=C2\CN(C)CC3C(c4ccc(C)cc4)=C(C#N)C(=O)NC23)cc1` (stereo unspecified) yielded a TGI (SF-295 CNS) greater than 50 µM, a TGI (HOP-62 NSCLC) greater than 50 µM and a TGI (NCI-H460 lung) greater than 50 µM. It also gave a TGI (MDA-MB-435) greater than 50 µM, a TGI (NCI-H226 lung) greater than 50 µM and a TGI (NCI-H23 lung) greater than 50 µM. The TGI (OVCAR-8 ovarian) was greater than 50 µM, the TGI (U251 CNS) was greater than 50 µM and the TGI (A549 NSCLC) was greater than 50 µM. It also gave a TGI (ACHN renal) greater than 50 µM, a TGI (SN12C renal) greater than 50 µM and a TGI (HS 578T breast) greater than 50 µM. It also gave a TGI (COLO 205 colon) greater than 50 µM, a TGI (SK-MEL-2 melanoma) greater than 50 µM and a TGI (NCI/ADR-RES ovarian) greater than 50 µM. For the same compound, the TGI (SNB-19 CNS) was greater than 50 µM, the TGI (SW-620 colon) was greater than 50 µM and the TGI (786-0 renal) was greater than 50 µM. It also gave a TGI (NCI-H522 lung) greater than 50 µM, a TGI (MALME-3M melanoma) greater than 50 µM and a TGI (LOX IMVI melanoma) greater than 50 µM. The TGI (RPMI-8226 leukemia) was greater than 50 µM, the TGI (OVCAR-4 ovarian) was greater than 50 µM and the TGI (CAKI-1 renal) was greater than 50 µM. The TGI (HT29 colon) was greater than 50 µM, the TGI (MDA-MB-231 breast) was greater than 50 µM and the TGI (DU-145 prostate) was greater than 50 µM. The TGI (OVCAR-3 ovarian) was greater than 50 µM, the TGI (HCC-2998 colon) was greater than 50 µM and the TGI (TK-10 renal) was greater than 50 µM. It also gave a TGI (MOLT-4 leukemia) greater than 50 µM, a TGI (HCT-15 colon) greater than 50 µM and a TGI (SK-MEL-5 melanoma) greater than 50 µM. For the same compound, the TGI (HOP-92 NSCLC) was greater than 50 µM, the TGI (HCT-116 colon) was greater than 50 µM and the TGI (OVCAR-5 ovarian) was greater than 50 µM. It also gave a TGI (KM12 colon) greater than 50 µM, a TGI (RXF 393 renal) greater than 50 µM and a TGI (MCF7 breast) greater than 50 µM. It also gave a TGI (UACC-62 melanoma) greater than 50 µM, a TGI (SF-268 CNS) greater than 50 µM and a TGI (K-562 leukemia) greater than 50 µM. The TGI (BT-549 breast) was greater than 50 µM, the TGI (EKVX NSCLC) was greater than 50 µM and the TGI (SK-MEL-28 melanoma) was greater than 50 µM. It also gave a TGI (T-47D breast) greater than 50 µM, a TGI (UACC-257 melanoma) greater than 50 µM and a TGI (IGROV1 ovarian) greater than 50 µM. For the same compound, the TGI (M14 melanoma) was greater than 50 µM, the TGI (CCRF-CEM leukemia) was greater than 50 µM and the TGI (PC-3 prostate) was greater than 50 µM. It also gave a TGI (SK-OV-3 ovarian) greater than 50 µM, a TGI (A498 renal) greater than 50 µM and a TGI (MDA-N) greater than 50 µM.
`CC(C)Nc1[nH]c(C(=O)c2ccccc2)c(N)c1C(=S)Nc1ccccc1` gave a TGI (SF-295 CNS) greater than 100 µM, a TGI (HOP-62 NSCLC) greater than 100 µM and a TGI (NCI-H460 lung) greater than 100 µM. It also gave a TGI (MDA-MB-435) of 99.1 µM, a TGI (NCI-H226 lung) greater than 100 µM and a TGI (NCI-H23 lung) greater than 100 µM. The TGI (OVCAR-8 ovarian) was greater than 100 µM, the TGI (U251 CNS) was greater than 100 µM and the TGI (A549 NSCLC) was greater than 100 µM. The TGI (ACHN renal) was greater than 100 µM, the TGI (SN12C renal) was greater than 100 µM and the TGI (SNB-75 CNS) was greater than 100 µM. For the same compound, the TGI (HS 578T breast) was greater than 100 µM, the TGI (COLO 205 colon) was 97.5 µM and the TGI (SK-MEL-2 melanoma) was 52.1 µM. It also gave a TGI (NCI/ADR-RES ovarian) greater than 100 µM, a TGI (SF-539 CNS) greater than 100 µM and a TGI (SNB-19 CNS) greater than 100 µM. For the same compound, the TGI (UO-31 renal) was greater than 100 µM, the TGI (SW-620 colon) was greater than 100 µM and the TGI (786-0 renal) was greater than 100 µM. The TGI (NCI-H522 lung) was greater than 100 µM, the TGI (MALME-3M melanoma) was 43.8 µM and the TGI (LOX IMVI melanoma) was 80.4 µM. The TGI (OVCAR-4 ovarian) was greater than 100 µM, the TGI (CAKI-1 renal) was greater than 100 µM and the TGI (HT29 colon) was 91.3 µM. The TGI (MDA-MB-231 breast) was greater than 100 µM, the TGI (DU-145 prostate) was greater than 100 µM and the TGI (HL-60(TB) leukemia) was greater than 100 µM. It also gave a TGI (OVCAR-3 ovarian) greater than 100 µM, a TGI (HCC-2998 colon) of 46.2 µM and a TGI (TK-10 renal) greater than 100 µM. For the same compound, the TGI (MOLT-4 leukemia) was greater than 100 µM, the TGI (HCT-15 colon) was greater than 100 µM and the TGI (SR leukemia) was greater than 100 µM. The TGI (SK-MEL-5 melanoma) was 74.1 µM, the TGI (HOP-92 NSCLC) was greater than 100 µM and the TGI (HCT-116 colon) was greater than 100 µM. It also gave a TGI (OVCAR-5 ovarian) greater than 100 µM, a TGI (KM12 colon) greater than 100 µM and a TGI (MCF7 breast) greater than 100 µM. It also gave a TGI (UACC-62 melanoma) of 35.2 µM, a TGI (SF-268 CNS) greater than 100 µM and a TGI (K-562 leukemia) greater than 100 µM. The TGI (BT-549 breast) was greater than 100 µM, the TGI (EKVX NSCLC) was greater than 100 µM and the TGI (SK-MEL-28 melanoma) was 35.1 µM. It also gave a TGI (T-47D breast) greater than 100 µM, a TGI (UACC-257 melanoma) of 46.7 µM and a TGI (IGROV1 ovarian) greater than 100 µM. For the same compound, the TGI (M14 melanoma) was 48.5 µM, the TGI (CCRF-CEM leukemia) was greater than 100 µM and the TGI (PC-3 prostate) was greater than 100 µM. For the same compound, the TGI (SK-OV-3 ovarian) was greater than 100 µM, the TGI (A498 renal) was greater than 100 µM and the TGI (MDA-N) was greater than 100 µM.
